Experimental data published in US20260297070A1, “CYCLIC [COMPOUND LEFT OUT] WRN INHIBITORS” (Nimbus Wadjet, Inc., priority 2023, published 2026).

Target: T1, human Werner helicase (WRN-BV08, Uniprot Q14191, amino acids 517-1235 with L1074F point mutation) (Homo sapiens, UniProt Q14191, L1074F)
T1 construct: Uniprot Q14191, amino acids 517-1235 with L1074F point mutation; TEV-cleavable 8×His (C, cleaved yes); made in house; host or cells: Sf9 insect cells (baculovirus)
Assay: WRN (BV08) ADP-Glo Assay
Type: biochemical
Settings: 0.15 nM WRN, 5 μM ATP, 0.1 nM DNA duplex, 15 min preincubation, 60 min at 25° C., pH 7.5, 1% DMSO; read-out: ADP-Glo_hWRN_IC50
Procedure, shortened: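 0.15 nM WRN (aa 517-1235, L1074F, Sf9-expressed, tag cleaved) preincubated 15 min at 25 °C with compound, then 5 μM ATP and 0.1 nM DNA duplex added for 60 min. Buffer: 20 mM Bicine pH 7.5, 1 mM MgCl2, 10 mM KCl, 1 mM TCEP; 1% DMSO. ADP-Glo luminescence; IC50 by 4-parameter fit.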

T1 sequence (Q14191 with tags, fused parts or gaps L1074F limits assumed): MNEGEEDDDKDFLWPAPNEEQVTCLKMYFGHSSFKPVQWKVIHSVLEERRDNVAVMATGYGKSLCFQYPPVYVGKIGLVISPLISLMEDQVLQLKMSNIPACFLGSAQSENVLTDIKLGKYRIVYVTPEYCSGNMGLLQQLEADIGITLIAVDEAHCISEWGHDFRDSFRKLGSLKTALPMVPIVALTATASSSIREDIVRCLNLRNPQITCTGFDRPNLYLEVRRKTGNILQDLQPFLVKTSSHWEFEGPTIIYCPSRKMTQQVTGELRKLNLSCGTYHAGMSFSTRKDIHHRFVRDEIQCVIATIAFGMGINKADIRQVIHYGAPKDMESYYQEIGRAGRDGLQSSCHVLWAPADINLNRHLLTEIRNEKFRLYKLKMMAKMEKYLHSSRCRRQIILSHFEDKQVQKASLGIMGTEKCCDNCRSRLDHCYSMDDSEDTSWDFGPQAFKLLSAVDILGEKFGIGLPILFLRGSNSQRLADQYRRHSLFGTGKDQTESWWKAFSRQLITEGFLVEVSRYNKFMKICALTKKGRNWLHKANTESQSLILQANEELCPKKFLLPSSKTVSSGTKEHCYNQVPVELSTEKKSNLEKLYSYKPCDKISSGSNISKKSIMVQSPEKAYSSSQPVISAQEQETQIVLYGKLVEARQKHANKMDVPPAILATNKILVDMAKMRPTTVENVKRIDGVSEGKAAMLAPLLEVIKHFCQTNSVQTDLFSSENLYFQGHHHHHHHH

Question: Which IC50 does the source give for `COc1cc(CN(C(=O)C2Cc3cc(-c4ccc(F)cc4)ccc32)C2C=CS(=O)(=O)C2)ccn1` (stereo not shown) [I-176, N-(1,1-dioxo-2,3-dihydro-1lambda6-thiophen-3-yl)-3-(4-fluorophenyl)-N-[(2-methoxypyridin-4-yl)methyl]bicyclo[4.2.0]octa-1,3,5-triene-7-carboxamide] here?
Answer: The IC50 was 0.5 to 5 µM.

Question: How did the IC50 turn out when `O=C(Cc1ccc(C2CCC2)cc1)N(Cc1ccncc1)C1C=CS(=O)(=O)C1` (stereo not shown) [I-177, 2-(4-cyclobutylphenyl)-N-(1,1-dioxo-2,3-dihydro-1lambda6-thiophen-3-yl)-N-[(pyridin-4-yl)methyl]acetamide] was run?
Answer: The IC50 was 0.5 to 5 µM.

Question: How did the IC50 turn out when `O=C(Cc1ccc(-n2cccc2)cc1)N(Cc1nc2c(s1)COCC2)C1C=CS(=O)(=O)C1` (stereo not shown) [I-178, N-(1,1-dioxo-2,3-dihydro-1lambda6-thiophen-3-yl)-N-({4H,6H,7H-pyrano[4,3-d][1,3]thiazol-2-yl}methyl)-2-[4-(1H-pyrrol-1-yl)phenyl]acetamide] was run?
Answer: The IC50 was 0.5 to 5 µM.

Question: For `Cc1cccn1-c1ccc(CC(=O)N(Cc2ccnc3c2CCO3)C2C=CS(=O)(=O)C2)c(F)c1` (stereo not shown) [I-179, N-(1,1-dioxo-2,3-dihydro-1lambda6-thiophen-3-yl)-2-[2-fluoro-4-(2-methyl-1H-pyrrol-1-yl)phenyl]-N-({2H,3H-furo[2,3-b]pyridin-4-yl}methyl)acetamide], which IC50 is on record?
Answer: The IC50 was 0.5 to 5 µM.

Question: How did the IC50 turn out when `CC(C)(O)c1cc(CN(C(=O)Cc2ccc(-c3ccc(Cl)cc3)cc2F)C2C=CS(=O)(=O)C2)ccn1` (stereo not shown) [I-180, 2-{4′-chloro-3-fluoro-[1,1′-biphenyl]-4-yl}-N-(1,1-dioxo-2,3-dihydro-1lambda6-thiophen-3-yl)-N-{[2-(2-hydroxypropan-2-yl)pyridin-4-yl]methyl}acetamide] was run?
Answer: Its IC50 is 0.5 to 5 µM.

Question: For `Cc1cccn1-c1ccc(CC(=O)N(Cc2ccncn2)C2C=CS(=O)(=O)C2)c(F)c1` (stereo not shown) [I-181, N-(1,1-dioxo-2,3-dihydro-1lambda6-thiophen-3-yl)-2-[2-fluoro-4-(2-methyl-1H-pyrrol-1-yl)phenyl]-N-[(pyrimidin-4-yl)methyl]acetamide], which IC50 is on record?
Answer: Its IC50 is 0.5 to 5 µM.

Question: How did the IC50 turn out when `C#CCCCC(=O)N1CCN(C(=O)c2ccc(CN(C(=O)Cc3ccc(-n4cccc4C)cc3F)C3C=CS(=O)(=O)C3)cc2)CC1` (stereo not shown) [I-182, N-(1,1-dioxo-2,3-dihydro-1lambda6-thiophen-3-yl)-2-[2-fluoro-4-(2-methyl-1H-pyrrol-1-yl)phenyl]-N-({4-[4-(hex-5-ynoyl)piperazine-1-carbonyl]phenyl}methyl)acetamide] was run?
Answer: The IC50 was 0.5 to 5 µM.

Question: With `O=C(Cn1cc2ccc(C(F)(F)F)cc2n1)N(Cc1ccncc1)C1C=CS(=O)(=O)C1` (stereo not shown) [I-183, N-(1,1-dioxo-2,3-dihydro-1lambda6-thiophen-3-yl)-N-[(pyridin-4-yl)methyl]-2-[6-(trifluoromethyl)-2H-indazol-2-yl]acetamide] as the molecule, how does the IC50 read?
Answer: Its IC50 is 0.5 to 5 µM.

Question: How did the IC50 turn out when `NS(=O)(=O)c1ccc(CN(C(=O)Cc2ccc(-n3cccc3)cc2)C2C=CS(=O)(=O)C2)cc1` (stereo not shown) [I-184, N-(1,1-dioxo-2,3-dihydro-1lambda6-thiophen-3-yl)-2-[4-(1H-pyrrol-1-yl)phenyl]-N-[(4-sulfamoylphenyl)methyl]acetamide] was run?
Answer: Its IC50 is 0.5 to 5 µM.

Question: How did the IC50 turn out when `O=C(O)c1ccc(CN(C(=O)Cc2ccc(-n3cccc3)cc2F)C2C=CS(=O)(=O)C2)cc1` (stereo not shown) [I-185, 4-{[N-(1,1-dioxo-2,3-dihydro-1lambda6-thiophen-3-yl)-2-[2-fluoro-4-(1H-pyrrol-1-yl)phenyl]acetamido]methyl}benzoic acid] was run?
Answer: Its IC50 is 0.5 to 5 µM.

Question: For `O=C(Cn1cc(-c2ccccc2)cn1)N(Cc1ccncc1)C1C=CS(=O)(=O)C1` (stereo not shown) [I-186, N-(1,1-dioxo-2,3-dihydro-1lambda6-thiophen-3-yl)-2-(4-phenyl-1H-pyrazol-1-yl)-N-[(pyridin-4-yl)methyl]acetamide], which IC50 is on record?
Answer: Its IC50 is 0.5 to 5 µM.

Question: For `O=C(Cc1ccc(-n2cccc2)cc1)N(Cc1ccnc(C(F)F)c1)C1C=CS(=O)(=O)C1` (stereo not shown) [I-187, N-{[2-(difluoromethyl)pyridin-4-yl]methyl}-N-(1,1-dioxo-2,3-dihydro-1lambda6-thiophen-3-yl)-2-[4-(1H-pyrrol-1-yl)phenyl]acetamide], which IC50 is on record?
Answer: The IC50 was 0.5 to 5 µM.

Question: Which IC50 does the source give for `O=C(Cc1ccc(-c2cccc(F)c2)cc1)N(Cc1ccncc1)C1C=CS(=O)(=O)C1` (stereo not shown) [I-188, N-(1,1-dioxo-2,3-dihydro-1lambda6-thiophen-3-yl)-2-{3′-fluoro-[1,1′-biphenyl]-4-yl}-N-[(pyridin-4-yl)methyl]acetamide] here?
Answer: The IC50 was 0.5 to 5 µM.

Question: For `Cc1csc(CN(C(=O)Cc2ccc(-n3cccc3)cc2)C2C=CS(=O)(=O)C2)n1` (stereo not shown) [I-189, N-(1,1-dioxo-2,3-dihydro-1lambda6-thiophen-3-yl)-N-[(4-methyl-1,3-thiazol-2-yl)methyl]-2-[4-(1H-pyrrol-1-yl)phenyl]acetamide], which IC50 is on record?
Answer: The IC50 was 0.5 to 5 µM.

Question: How did the IC50 turn out when `N#Cc1csc(CN(C(=O)Cc2ccc(-n3cccc3)cc2)C2C=CS(=O)(=O)C2)n1` (stereo not shown) [I-190, N-[(4-cyano-1,3-thiazol-2-yl)methyl]-N-(1,1-dioxo-2,3-dihydro-1lambda6-thiophen-3-yl)-2-[4-(1H-pyrrol-1-yl)phenyl]acetamide] was run?
Answer: The IC50 was 0.5 to 5 µM.

Question: How did the IC50 turn out when `CC(F)(F)c1ccc(CC(=O)N(Cc2ccncc2)C2C=CS(=O)(=O)C2)cc1` (stereo not shown) [I-191, 2-[4-(1,1-difluoroethyl)phenyl]-N-(1,1-dioxo-2,3-dihydro-1lambda6-thiophen-3-yl)-N-[(pyridin-4-yl)methyl]acetamide] was run?
Answer: Its IC50 is 0.5 to 5 µM.

Question: Which IC50 does the source give for `CN(C)C(=O)C(C(=O)N(Cc1ccnc(C(C)(C)O)c1)C1C=CS(=O)(=O)C1)c1ccc(S(F)(F)(F)(F)F)cc1` (stereo not shown) [I-192, N′-(1,1-dioxo-2,3-dihydro-1lambda6-thiophen-3-yl)-N′-{[2-(2-hydroxypropan-2-yl)pyridin-4-yl]methyl}-N,N-dimethyl-2-[4-(pentafluoro-lambda6-sulfanyl)phenyl]propanediamide] here?
Answer: Its IC50 is 0.5 to 5 µM.

Question: How did the IC50 turn out when `COc1cc(CN(C(=O)Cc2ccc(-c3ccc(F)cc3O)nc2)C2C=CS(=O)(=O)C2)ccn1` (stereo not shown) [I-194, N-(1,1-dioxido-2,3-dihydrothiophen-3-yl)-2-(6-(4-fluoro-2-hydroxyphenyl)pyridin-3-yl)-N-((2-methoxypyridin-4-yl)methyl)acetamide] was run?
Answer: Its IC50 is 5 to 10 µM.

Question: How did the IC50 turn out when `COCC(C(=O)N(Cc1ccnc(C(C)(C)O)c1)C1C=CS(=O)(=O)C1)c1ccc(-c2ccc(F)c(F)c2)cc1F` (stereo not shown) [I-195, N-(1,1-dioxo-2,3-dihydro-1lambda6-thiophen-3-yl)-N-{[2-(2-hydroxypropan-2-yl)pyridin-4-yl]methyl}-3-methoxy-2-{3,3′,4′-trifluoro-[1,1′-biphenyl]-4-yl}propanamide] was run?
Answer: Its IC50 is 0.5 to 5 µM.

Question: `O=C(Cc1ccc(-c2ccc(F)cc2)cc1C(F)F)N(Cc1ccncc1)C1C=CS(=O)(=O)C1` (stereo not shown) [I-196, 2-[3-(difluoromethyl)-4′-fluoro-[1,1′-biphenyl]-4-yl]-N-(1,1-dioxo-2,3-dihydro-1lambda6-thiophen-3-yl)-N-[(pyridin-4-yl)methyl]acetamide] was tested. Which IC50 did it give?
Answer: The IC50 was 0.5 to 5 µM.

Question: How did the IC50 turn out when `CC(C)c1ccc(CC(=O)N(Cc2ccncc2)C2C=CS(=O)(=O)C2)cc1` (stereo not shown) [I-197, N-(1,1-dioxo-2,3-dihydro-1lambda6-thiophen-3-yl)-2-[4-(propan-2-yl)phenyl]-N-[(pyridin-4-yl)methyl]acetamide] was run?
Answer: The IC50 was 0.5 to 5 µM.

Question: How did the IC50 turn out when `COc1cc(CN(C(=O)Cc2ncc(-c3ccc(F)c(F)c3)cn2)C2C=CS(=O)(=O)C2)ccn1` (stereo not shown) [I-198, 2-[5-(3,4-difluorophenyl)pyrimidin-2-yl]-N-(1,1-dioxo-2,3-dihydro-1lambda6-thiophen-3-yl)-N-[(2-methoxypyridin-4-yl)methyl]acetamide] was run?
Answer: The IC50 was 0.5 to 5 µM.
